Measurements published in patent US8541588B2, “Sulfonamide derivatives” (Pfizer Limited, priority 2009, dated 2013).

The molecules below were run against T1, Nav1.7 (or SCN9A) channel; HEK cells stably transfected with hSCN9A (Homo sapiens, UniProt Q15858) (assay: Nav1.7 block, PatchXpress 7000 automated whole-cell voltage clamp, estimated IC50 (EIC50)). Settings: estimated IC50; hSCN9A HEK cells, PatchXpress platform; Examples 283-814.
T1 construct: expressed in transfected cells
Assay type: cell-based

T1 sequence (Q15858 whole entry): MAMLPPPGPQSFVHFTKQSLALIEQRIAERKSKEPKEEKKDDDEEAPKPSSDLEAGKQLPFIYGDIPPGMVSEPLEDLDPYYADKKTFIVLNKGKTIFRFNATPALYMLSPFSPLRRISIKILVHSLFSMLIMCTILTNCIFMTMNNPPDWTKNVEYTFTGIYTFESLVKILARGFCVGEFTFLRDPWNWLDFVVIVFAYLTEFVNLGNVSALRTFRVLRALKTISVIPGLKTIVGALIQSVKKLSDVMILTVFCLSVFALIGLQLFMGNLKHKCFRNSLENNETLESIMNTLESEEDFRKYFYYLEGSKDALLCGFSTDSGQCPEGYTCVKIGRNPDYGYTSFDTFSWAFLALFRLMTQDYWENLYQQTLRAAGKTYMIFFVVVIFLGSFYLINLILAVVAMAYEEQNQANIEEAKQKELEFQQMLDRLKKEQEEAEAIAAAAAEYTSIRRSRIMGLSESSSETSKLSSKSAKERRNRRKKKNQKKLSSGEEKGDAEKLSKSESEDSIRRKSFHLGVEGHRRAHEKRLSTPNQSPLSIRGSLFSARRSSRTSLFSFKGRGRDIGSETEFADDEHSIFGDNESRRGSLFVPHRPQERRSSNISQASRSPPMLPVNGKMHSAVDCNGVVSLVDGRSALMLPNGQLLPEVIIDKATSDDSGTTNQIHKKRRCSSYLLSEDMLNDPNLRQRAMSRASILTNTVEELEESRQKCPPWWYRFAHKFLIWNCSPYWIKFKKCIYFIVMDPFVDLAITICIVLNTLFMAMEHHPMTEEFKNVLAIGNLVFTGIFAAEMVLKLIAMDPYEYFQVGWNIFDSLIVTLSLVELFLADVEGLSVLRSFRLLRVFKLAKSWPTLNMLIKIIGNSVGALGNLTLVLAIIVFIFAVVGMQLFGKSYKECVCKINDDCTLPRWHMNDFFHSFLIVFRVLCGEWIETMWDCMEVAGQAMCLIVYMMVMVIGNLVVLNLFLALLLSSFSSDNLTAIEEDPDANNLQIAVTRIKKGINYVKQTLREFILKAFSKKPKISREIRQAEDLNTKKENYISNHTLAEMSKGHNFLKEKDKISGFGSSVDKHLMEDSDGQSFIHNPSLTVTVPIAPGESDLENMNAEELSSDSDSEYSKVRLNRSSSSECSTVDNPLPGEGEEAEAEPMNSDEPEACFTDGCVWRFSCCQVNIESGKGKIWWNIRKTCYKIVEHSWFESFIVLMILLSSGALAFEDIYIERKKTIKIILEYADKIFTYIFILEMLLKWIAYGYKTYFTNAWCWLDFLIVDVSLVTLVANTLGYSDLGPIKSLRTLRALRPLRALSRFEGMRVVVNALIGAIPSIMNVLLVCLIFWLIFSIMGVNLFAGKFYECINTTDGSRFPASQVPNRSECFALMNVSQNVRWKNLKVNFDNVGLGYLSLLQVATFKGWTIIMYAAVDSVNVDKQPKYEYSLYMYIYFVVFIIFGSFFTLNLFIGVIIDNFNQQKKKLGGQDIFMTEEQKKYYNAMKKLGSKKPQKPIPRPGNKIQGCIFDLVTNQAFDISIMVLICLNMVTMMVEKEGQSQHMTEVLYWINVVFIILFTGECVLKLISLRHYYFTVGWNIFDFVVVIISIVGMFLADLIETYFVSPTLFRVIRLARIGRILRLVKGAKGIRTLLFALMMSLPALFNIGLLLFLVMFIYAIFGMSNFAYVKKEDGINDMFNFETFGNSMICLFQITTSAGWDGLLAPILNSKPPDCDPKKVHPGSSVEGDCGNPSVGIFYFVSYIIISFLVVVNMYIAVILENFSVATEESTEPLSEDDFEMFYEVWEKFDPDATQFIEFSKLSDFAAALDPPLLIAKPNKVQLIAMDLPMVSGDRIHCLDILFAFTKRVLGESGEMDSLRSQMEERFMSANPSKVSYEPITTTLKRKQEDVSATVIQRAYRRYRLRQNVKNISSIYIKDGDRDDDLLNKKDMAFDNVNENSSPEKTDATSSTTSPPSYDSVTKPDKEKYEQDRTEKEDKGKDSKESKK

“tert-Butyl [(5-chloro-2,4-difluorophenyl)sulfonyl](5-cyano-1,3-thiazol-4-yl)carbamate [Example 516]” gave an IC50 of 10000 nM.

Same assay, conditions: estimated IC50; hSCN9A HEK cells, PatchXpress platform; Examples 815-1040

First: N#Cc1cc(S(=O)(=O)Nc2ncns2)ccc1Oc1ccc(Cl)cc1-c1ccnc(N2CCNCC2)n1 [Example 1030, 4-[4-Chloro-2-(2-piperazin-1-ylpyrimidin-4-yl)phenoxy]-3-cyano-N-1,2,4-thiadiazol-5-ylbenzenesulfonamide]
Second: N#Cc1cc(S(=O)(=O)Nc2ncns2)ccc1Oc1cc(F)c(C(F)(F)F)cc1-c1ccnnc1 [Example 1035, 3-Cyano-4-[5-fluoro-2-pyridazin-4-yl-4-(trifluoromethyl)phenoxy]-N-1,2,4-thiodiazol-5-ylbenzenesulfonamide]
The IC50 of the first is 5.4-fold lower: 0.7 nM for the first, 3.8 nM for the second.

`Nc1cc(-c2cc(Cl)ccc2Oc2cc(F)c(S(=O)(=O)Nc3cccnn3)cc2Cl)ccn1` [Example 1031, 4-[2-(2-aminopyridin-4-yl)-4-chlorophenoxy]-5-chloro-2-fluoro-N-pyridazin-3-ylbenzenesulfonamide] and `Nc1n[nH]cc1-c1cc(Cl)ccc1Oc1cc(F)c(S(=O)(=O)Nc2cccnn2)cc1Cl` [Example 1038, 4-[2-(3-amino-1H-pyrazol-4-yl)-4-chlorophenoxy]-5-chloro-2-fluoro-N-pyridazin-3-ylbenzenesulfonamide] are within 1.5-fold of each other in IC50: 29 nM for the first, 34 nM for the second.

Going from `O=S(=O)(Nc1cscn1)c1cc(F)c(Oc2ccc(Cl)cc2-c2ccnc(CN3CCC3)c2)cc1F` [Example 1032, 4-{2-[2-(Azetidin-1-ylmethyl)pyridin-4-yl]-4-chlorophenoxy}-2,5-difluoro-N-1,3-thiazol-4-ylbenzenesulfonamide] to `Nc1n[nH]cc1-c1cc(Cl)ccc1Oc1cc(F)c(S(=O)(=O)Nc2ccncn2)cc1Cl` [Example 1036, 4-[2-(3-amino-1H-pyrazol-4-yl)-4-chlorophenoxy]-5-chloro-2-fluoro-N-pyrimidin-4-ylbenzenesulfonamide], the IC50 rises from 13 nM to 21 nM (1.6-fold). The first is the more potent here.

Compared with `CCN1CC(n2nccc2-c2cc(C(F)(F)F)ccc2Oc2ccc(S(=O)(=O)Nc3ncns3)cc2C#N)C1` [Example 1033, 3-Cyano-4-{2-[1-(1-ethylazetidin-3-yl)-1H-pyrazol-5-yl]-4-(trifluoromethyl)phenoxy}-N-1,2,4-thiadiazol-5-ylbenzenesulfonamide], `Cn1nccc1-c1cc(Cl)ccc1Oc1ccc(S(=O)(=O)/N=c2\sccn2COP(=O)(O)O)cc1C#N` [Example 1039, [(2Z)-2-[({4-[4-Chloro-2-(1-methyl-1H-pyrazol-5-yl)phenoxy]-3-cyanophenyl}sulfonyl)imino]-1,3-thiazol-3(2H)-yl]methyl dihydrogen phosphate] is 89-fold higher in IC50: 3.5 nM for the first, 310 nM for the second. The first is the more potent here.

`O=S(=O)(Nc1nncs1)c1cc(Cl)c(Oc2cc(F)c(C(F)(F)F)cc2-c2ccnnc2)cc1F` [Example 1034, 5-Chloro-2-fluoro-4-[5-fluoro-2-pyridazin-4-yl-4-(trifluoromethyl)phenoxy]-N-1,3,4-thiadiazol-2-ylbenzenesulfonamide] and `Cc1cc(S(=O)(=O)Nc2nncs2)c(F)cc1Oc1ccc(OC(F)(F)F)cc1-c1ccnnc1` [Example 1037, 2-fluoro-5-methyl-4-[2-pyridazin-4-yl-4-(trifluoromethoxy)phenoxy]-N-1,3,4-thiadiazol-2-ylbenzenesulfonamide] are within 1.5-fold of each other in IC50: 11 nM for the first, 12 nM for the second.
